Drawing on a melting point compilation (Tetko et al.; mined from patent text by program, amines drawn as free bases though some values may be those of a salt), this text covers melting point for 35 compounds.

Structures are written as SMILES. A value given as a limit tells only on which side of the number the result lay.

With `COc1cc(NC(=O)Nc2ccc(C3=CCN(C(=O)Nc4ccc(OCC(O)CO)cc4Cl)CC3)cc2)cc(OC)c1` (stereo not given), the melting point (commonly the temperature of the solid-liquid transition) lay in the range of 108 to 111 °C.
For `C=CCc1cc(-c2cc(CC)cc(CC=C)c2O)ccc1O` the value was 47 to 48 °C.
To `CCN1CCNC(=O)c2ccc(Nc3ncc(Cl)c(N[C@@H]4CCCC[C@H]4NS(C)(=O)=O)n3)cc21` belongs 216 to 220 °C; to `CN(C)Cc1ccc2n1Cc1ccccc1N(C(=O)c1ccc(-c3ccccc3)cc1)C2`, 85 to 87 °C.
To `CC(C)CCCC(C)NC(=O)CCC(O)c1ccccc1` (stereo not given) belongs 72 to 89 °C; to `CC1(C)CC(O)CC(C)(C)N1N=Nc1ccccc1`, 68 to 70 °C.
In turn, `COC(=O)c1cc(S(=O)(=O)NC(=O)Nc2nc(C)cc(C)n2)c[nH]1` returned a melting point of 202 to 204 °C.
Consider `CN(C(N)=O)C1Nc2ccc(Cl)cc2Oc2ccccc21` (stereo not given), for which the melting point was 146 to 149 °C.
In the case of `O=C1CCC2=C1C(c1ccc(F)c(F)c1)C1=C(CCS1)N2` (stereo not given), the melting point was above 260 °C.
For `O=C(O)Cc1ccc(NC(=O)C(COc2ccc(Cl)cc2)NS(=O)(=O)c2ccc(Cl)cc2)cc1` (racemic), the melting point lay in the range of 205 to 207 °C.
Take `O=C1CCC(n2cnc3ccc(Cl)cc3c2=O)C(=O)N1` (stereo not given): the melting point lay within 302 to 305 °C.
Turning to `COc1ccc(-c2ncc(C(F)(F)F)cc2Cl)cc1`, the melting point was 71 to 72 °C.
In the case of `CNc1c(F)cccc1C(C)=O`, the melting point fell in the range of 26 to 28 °C.
`CCN1c2ncc(C=O)cc2C(=O)N(C)c2ccc(F)nc21` yielded a melting point of 133 to 134 °C.
For `CC1(C)[C@@H](CN2CCCS2(=O)=O)CC[C@@]1(C)NCC(=O)N1C[C@@H](F)C[C@H]1C#N`, the melting point is 126 to 128 °C.
For `Nc1cccc(-c2ccc(CCN3CCN(C(=O)NCc4ccccc4)CC3)cc2)n1` the value was 172 to 175 °C.
To `O=C(O)CC1=Cc2ccccc2C1` belongs 114 to 115 °C; to `Cc1cc(=O)n2c3c(cc(C(O)(C(F)(F)F)C(F)(F)F)cc13)CCC2`, 295 to 296 °C; to `O=C1NC(=Cc2cccc(Cl)c2Cl)C(=O)C1=NO`, 180 °C.
As to `OP(O)C1(NC(c2ccccc2)c2ccccc2)CCCC1`, the melting point fell in the range of 204 to 205 °C.
For `CCCCOc1cc(/C=C(\OCC)C(=O)O)ccc1OCCc1ccc(OCC)c(F)c1` the value was 119 °C; for `O=C(Nc1ccc2c(c1)CSCC2)OCc1ccccc1`, 109 to 111 °C.
Consider `C#CCS(=O)(=O)c1cc([N+](=O)[O-])ccc1Cl`, for which the melting point fell in the range of 238 to 241 °C.
For `COc1cc(OC2CCN(c3c(O)c(=O)c3=O)CC2)ccc1CC(=O)N1CCN(c2ccccc2C)CC1C(N)=O` (stereo not given) the value was 144 to 148 °C; for `CCCCCCCCCCCCOc1cccc(C2=C(O)C(O)(Cc3ccccc3)N(C)C2=O)c1` (stereo not given), 110 to 111 °C.
In turn, `OCC1CCN(c2ccncc2)CC1` yielded a melting point of 183 to 185 °C.
To `CCN(c1ccc(C)c2cc(-c3ncc(C(C)O)s3)[nH]c12)S(=O)(=O)c1cccs1` (stereo not given) belongs 152 to 153 °C; to `N#CC1=C(c2ccccc2)CN(c2ccccc2)C1=O`, 188 to 190 °C; to `Cc1ncc(OC(=O)C2(C3CCCCC3)CCCCC2)cn1`, 52 to 55 °C.
To `CN1CCC(ON2C(=O)c3ccccc3C2=O)CC1` belongs 90 °C.
To `CS(=O)(=O)c1ccc(-c2cnn(-c3ccc(F)c(F)c3)c(=O)c2-c2ccc(Cl)cc2)cc1` belongs 187 to 188 °C; to `CC(C)(C)OC(=O)N1CCN(c2ccc(NC(=O)Nc3cc(Cl)ccc3NS(C)(=O)=O)cc2)CC1`, 127 °C.
Regarding `CCOC(=O)Cc1c[nH]c2cc(-c3ccccc3)nn2c1=O`, the melting point lay in the range of 245 to 250 °C.
`CCC(=C1SCN(C)CS1)c1ccc(Oc2ccccc2)cc1`: the melting point fell in the range of 96 to 96.5 °C.
In the case of `Cc1nc(-n2cnn(CCNCc3ccc(F)cc3)c2=O)sc1C(=O)NCc1cccnc1`, the melting point lay in the range of 106 to 107 °C.
